Tests used:
Campylobacter fetus = type: cell-based
Mycoplasma species = settings: 200 μg/ml; cited from earlier work
[1] = test system: cultured cells and embryos; settings: up to 1000 μg/ml; cited from earlier work
[2] = test system: bovine (Bos gaurus) sperm; test: Percoll density gradient with trypsin, viability of cryopreserved sperm
[3] = test system: fresh semen of domestic bulls and gaur bulls; type: cell-based, Bos taurus, Bos gaur

CC[C@H]1OC(=O)C[C@@H](O)[C@H](C)[C@@H](O[C@@H]2O[C@H](C)[C@@H](O[C@H]3C[C@@](C)(O)[C@@H](O)[C@H](C)O3)[C@H](N(C)C)[C@H]2O)[C@@H](CC=O)C[C@@H](C)C(=O)/C=C/C(C)=C/[C@@H]1CO[C@@H]1O[C@H](C)[C@@H](O)[C@@H](OC)[C@H]1OC [tylosin]
sensitivity of C. fetus to antibiotic (Campylobacter fetus): intermediate
elimination of Mycoplasma species from bovine embryos (Mycoplasma species): capable of eliminating
embryo viability (Mycoplasma species): without effecting embryo viability

CCC[C@@H]1C[C@@H](C(=O)N[C@@H]([C@H]2O[C@H](SC)[C@H](O)[C@@H](O)[C@H]2O)[C@@H](C)O)N(C)C1 [lincomycin]
sensitivity of C. fetus to antibiotic (Campylobacter fetus): sensitive

NC[C@H]1O[C@H](O[C@H]2[C@H](O)[C@@H](O[C@H]3O[C@H](CO)[C@@H](O)[C@H](N)[C@H]3O)[C@H](N)C[C@@H]2N)[C@H](O)[C@@H](O)[C@@H]1O [kanamycin]
toxicity to cultured cells and embryos [1]: very little toxicity

CN[C@@H]1[C@H](O)[C@H](NC)[C@H]2O[C@@]3(O)C(=O)C[C@@H](C)O[C@H]3O[C@@H]2[C@H]1O [spectinomycin]
sensitivity of C. fetus to antibiotic (Campylobacter fetus): intermediate

trypsin
effect on sperm of increasing trypsin concentration [2]: no detrimental effects
acrosomal integrity [3]: nor any significant damage
overall motility [3]: no significant reduction
viability (vital staining) [3]: no reduction

From patent US7405036B2, “Process for reducing pathogens in a biological sample and removing a sample pellet from a sample tube” (priority 2001, dated 2008)
